Measured values taken from BigSolDB 2.1.

O=[N+]([O-])c1cn[nH]c1[N+](=O)[O-]
solubility (mole fraction)
Conditions | 298.15 K | 303.15 K | 308.15 K | 313.15 K | 318.15 K | 323.15 K | 328.15 K | 333.15 K | 338.15 K
in anisole | 0.043 | 0.058 | 0.0778 | 0.103 | 0.138 | 0.181 | 0.237 | 0.313 | 0.411
in benzene | 0.00171 | 0.00211 | 0.00264 | 0.00317 | 0.00389 | 0.00482 | 0.00585 | 0.00742 | 0.00936
in chlorobenzene | 0.0012 | 0.00147 | 0.0018 | 0.00218 | 0.00266 | 0.00328 | 0.00402 | 0.00494 | 0.00609
in isopropanol | 0.388 | 0.413 | 0.441 | 0.472 | 0.509 | 0.547 | 0.588 | 0.642 | 0.7
in n-butanol | 0.318 | 0.348 | 0.387 | 0.411 | 0.444 | 0.489 | 0.528 | 0.586 | 0.648
in toluene | 0.00201 | 0.0024 | 0.00291 | 0.00345 | 0.00411 | 0.00499 | 0.00601 | 0.00725 | 0.00877
